Laboratory results reported in patent US11485735B2, “Selective CDK4/6 inhibitor and preparation thereof” (Wuxi Shuangliang Biotechnology Co., Ltd., priority 2019, dated 2022).
Structures can show the parent of a compound that is named as a salt.

Columns and labels:
[1] = target: T1, CDK6/CyclinD3 (Homo sapiens, UniProt Q00534); assay: In-vitro kinase inhibitory activity, CDK6/CyclinD3 (Caliper EZ Reader II mobility shift); assay type: biochemical; conditions: CDK6/CyclinD3 20 nM, ATP 2 mM, Peptide 1 μM, 27° C., 120 min; read-out: IC50 (half maximal inhibitory concentration, nM) CDK6
T1 construct: purchased Wuxi Biortus Biosciences Co. Ltd
T1 sequence (Q00534 whole entry, species assumed): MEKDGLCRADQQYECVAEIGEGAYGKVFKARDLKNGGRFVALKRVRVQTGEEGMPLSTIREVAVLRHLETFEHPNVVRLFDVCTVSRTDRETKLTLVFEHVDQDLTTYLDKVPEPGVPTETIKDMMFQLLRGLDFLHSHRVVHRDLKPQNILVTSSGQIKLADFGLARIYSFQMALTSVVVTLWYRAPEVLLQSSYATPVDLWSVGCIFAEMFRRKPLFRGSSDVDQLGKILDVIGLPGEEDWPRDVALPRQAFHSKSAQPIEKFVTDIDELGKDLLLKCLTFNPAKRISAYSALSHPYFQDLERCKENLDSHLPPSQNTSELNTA
T1 sequence (P30281 whole entry partner, species assumed): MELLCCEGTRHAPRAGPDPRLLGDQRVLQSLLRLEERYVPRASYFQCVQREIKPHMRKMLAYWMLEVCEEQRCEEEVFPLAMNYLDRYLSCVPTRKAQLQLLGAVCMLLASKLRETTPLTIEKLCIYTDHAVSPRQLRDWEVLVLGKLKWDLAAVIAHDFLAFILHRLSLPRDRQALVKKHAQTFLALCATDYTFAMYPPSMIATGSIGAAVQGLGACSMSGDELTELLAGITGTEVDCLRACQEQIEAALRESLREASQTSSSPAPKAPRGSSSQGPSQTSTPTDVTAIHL
Procedure: The final volume for assay was 16 μL, and the reaction temperature was 27° C. […] The compound was dissolved in dimethyl sulfoxide (DMSO) to reach a concentration of 10 mM. […] 2 μL of the test compound solution was mixed with 5 μL of the kinase solution, and the mixture was incubated for 10 min. 5 μL of the mixed solution of the polypeptide substrate and ATP was then added. The mixture was incubated at 27° C. for 120 min, and then the reaction was terminated by adding 4 μL of EDTA with a concentration of 120 mM to each sample. […] Each assay was conducted in at least two replicates.
(§1) The final concentrations of the reagents in the assay were as follows. […] The reaction mixture was analyzed on a Caliper EZ Reader II by electrophoretic separation of the fluorescent substrate and the phosphorylated product. Data were calculated by using GraphPad Prism version 6.0 and IC50 values were obtained by adjusting the non-linear regression models of the dose response curves.

[2] = target: T2, CDK4/CyclinD3 (Homo sapiens, UniProt P11802); assay: In-vitro kinase inhibitory activity, CDK4/CyclinD3 (Caliper EZ Reader II mobility shift); assay type: biochemical; conditions: CDK4/CyclinD3 20 nM, ATP 2 mM, Peptide 1 μM, 27° C., 180 min; read-out: IC50 (half maximal inhibitory concentration, nM) CDK4
T2 construct: purchased Wuxi Biortus Biosciences Co. Ltd
T2 sequence (P11802 whole entry, species assumed): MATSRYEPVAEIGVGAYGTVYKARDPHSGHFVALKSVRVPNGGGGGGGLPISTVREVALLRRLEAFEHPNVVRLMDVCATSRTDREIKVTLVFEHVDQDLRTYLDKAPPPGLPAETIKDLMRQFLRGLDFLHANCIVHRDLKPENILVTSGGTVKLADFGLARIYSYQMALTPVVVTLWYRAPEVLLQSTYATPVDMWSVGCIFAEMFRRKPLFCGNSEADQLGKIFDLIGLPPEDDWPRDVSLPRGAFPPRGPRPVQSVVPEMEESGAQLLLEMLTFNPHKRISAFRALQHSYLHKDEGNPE
T2 sequence (P30281 whole entry partner, species assumed): as the sequence (P30281 whole entry partner, species assumed) above
Procedure: The final volume for assay was 16 μL, and the reaction temperature was 27° C. CDK4/CyclinD3 was produced by Wuxi Biortus Biosciences Co. Ltd. The concentration of the kinase was determined by the results of the optimization experiment. The kinase was diluted with an assay buffer (50 mM Tris HCl pH 8.0, 0.01% Tween 20, 50 μg/mL BSA, and 5 mM MgCl2) to obtain a corresponding kinase solution (2.4× concentration). The compound was dissolved in dimethyl sulfoxide (DMSO) to reach a concentration of 10 mM. […] 2 μL of the test compound solution was mixed with 5 μL of the kinase solution, and the mixture was incubated for 10 min. 5 μL of the mixed solution of the polypeptide substrate and ATP was then added. The mixture was incubated at 27° C. for 180 min, and then the reaction was terminated by adding 4 μL of EDTA with a concentration of 120 mM to each sample. […] Each assay was conducted in at least two replicates.
as §1

[3] = target: CDK9 (Homo sapiens, UniProt P50750); assay: In-vitro kinase inhibitory activity, CDK9 (selectivity); assay type: biochemical; conditions: read-out: IC50 (half maximal inhibitory concentration, nM) CDK9
Chain of CDK9 (P50750 whole entry, species assumed): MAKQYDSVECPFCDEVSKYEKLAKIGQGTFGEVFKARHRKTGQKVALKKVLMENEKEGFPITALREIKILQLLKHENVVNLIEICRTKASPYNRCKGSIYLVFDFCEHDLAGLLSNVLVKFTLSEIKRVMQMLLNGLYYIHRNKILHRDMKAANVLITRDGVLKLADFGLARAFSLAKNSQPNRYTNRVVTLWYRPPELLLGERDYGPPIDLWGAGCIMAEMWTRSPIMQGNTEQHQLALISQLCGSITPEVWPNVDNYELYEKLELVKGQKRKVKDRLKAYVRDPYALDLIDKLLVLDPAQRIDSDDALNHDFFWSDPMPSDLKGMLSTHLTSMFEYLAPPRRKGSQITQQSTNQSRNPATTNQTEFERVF
Chain of CDK9 (O60563 whole entry partner, species assumed): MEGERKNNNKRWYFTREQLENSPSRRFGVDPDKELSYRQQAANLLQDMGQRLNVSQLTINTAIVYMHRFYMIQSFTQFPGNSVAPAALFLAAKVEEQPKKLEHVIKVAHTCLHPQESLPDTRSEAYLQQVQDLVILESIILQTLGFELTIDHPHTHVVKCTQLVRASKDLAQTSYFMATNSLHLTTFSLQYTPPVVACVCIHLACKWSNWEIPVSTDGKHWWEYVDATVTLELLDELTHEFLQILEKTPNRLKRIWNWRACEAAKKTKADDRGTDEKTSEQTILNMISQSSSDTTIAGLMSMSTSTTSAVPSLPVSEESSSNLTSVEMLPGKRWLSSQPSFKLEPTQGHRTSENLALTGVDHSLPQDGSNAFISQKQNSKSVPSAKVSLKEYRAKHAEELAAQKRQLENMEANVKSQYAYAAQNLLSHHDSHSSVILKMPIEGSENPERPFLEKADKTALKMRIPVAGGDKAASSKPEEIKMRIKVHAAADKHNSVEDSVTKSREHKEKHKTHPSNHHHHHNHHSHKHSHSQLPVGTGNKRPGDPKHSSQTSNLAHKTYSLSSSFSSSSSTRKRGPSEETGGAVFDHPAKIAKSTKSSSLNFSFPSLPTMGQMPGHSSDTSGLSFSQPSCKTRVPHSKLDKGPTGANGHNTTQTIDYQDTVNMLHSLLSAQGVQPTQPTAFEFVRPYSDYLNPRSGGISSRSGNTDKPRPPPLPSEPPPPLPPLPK

[4] = tested on: human colon cancer COLO205 cells; assay: Growth inhibition of tumor cells cultured in vitro, CellTiter-Glo, COLO205; assay type: cell-based; conditions: Homo sapiens, COLO 205, 72 h, COLO205, 72 h, CellTiter-Glo
From the text: (§2) Test drugs: Compounds of the present disclosure. Tumor cell strains: human colon cancer COLO205 cells and human breast cancer MCF-7 cells.
(§3) The growth inhibitory effects on human tumor cells COLO205 and MCF-7 cultured in vitro were observed by using a CellTiter-Glo Luminescent Cell Viability Assay Kit (Promega, Cat. No. G7572). Human tumor cells COLO205 and MCF-7 were both purchased from the American Type Culture Collection.
(§4) CellTiter-Glo Luminescent Cell Viability Assay: The previous cell culture medium was discarded, and the tumor cells were rinsed twice with PBS. An appropriate amount of trypsin (VWR, Cat. No. 0458-25G) was added to digest the tumor cells until most of the cells turned round and were detached from the wall. The trypsin digestion was terminated by adding an RPMI-1640 medium (COLO205; Gibco, Cat. No. A10491-01) containing 10% fetal bovine serum (Hyclone, Cat. No. SV30160.03) and MEM medium (MCF-7; Gibco, Cat. No. 10370-021) containing 10% fetal bovine serum and 0.01 mg/mL insulin, and the cells were gently pipetted with a pipette to completely suspend the tumor cells. After cell counting, a tumor cell suspension was prepared using a complete culture medium and the final concentration was 6.7×10^4 cells/mL. 90 μL of the tumor cell suspension was seeded in each well of a 96-well culture plate (6000 cells/well). The plate was then placed in an incubator with 5% CO2 at 37° C. and incubated for 24 h. A test drug was added by using an Agilent Bravo Automated Liquid Handling Platform, and 10 μL of the sample was added in each well. The assay was conducted in triplicate for each group. A compound of the present disclosure was dissolved in DMSO (BioRoYee, Cat. No. AF0231), and then the resulting solution was diluted to 10 μM/L, 3.33 μM/L, 1.11 μM/L, 0.37 μM/L, 0.123 μM/L, 0.041 μM/L, 0.0137 μM/L, 0.0046 μM/L, and 0.0015 μM/L with the culture medium. The concentration of DMSO was lower than 0.1%, and a culture medium containing 0.1% DMSO was added to the well which was set as a vehicle control group. The 96-well plate was placed in an incubator with 5% CO2 at 37° C. and incubated for 72 h. The 96-well plate to be tested was equilibrated at room temperature for 30 min, and 100 μL of Cell Titer-Glo reagent was added to each well. The contents of each well were mixed in an orbital shaker for 2 min to induce cell lysis, and the plate was incubated at room temperature for 10 min to achieve a constant value of fluorescent intensity. Finally, the chemiluminescence intensity was detected by TECAN M1000. Data were processed with Graphpad Prism 6.0 software. The growth curve of the cells was plotted. The cell growth inhibition rate of a drug was calculated, and the half maximal inhibitory concentration (IC50) of the drug was determined.

[5] = tested on: human breast cancer MCF-7 cells; assay: Growth inhibition of tumor cells cultured in vitro, CellTiter-Glo, MCF-7; assay type: cell-based
From the text: as §2, §3, §4

| IC50 [1] [nM] | IC50 [2] [nM] | IC50 [3] [nM] | IC50 [4] [nM] | IC50 ([5]; MCF-7, 72 h, CellTiter-Glo, dihydrochloride) [nM] | Structure (SMILES) | inhibitory effect on human breast cancer MCF-7 cells (in words) ([5]; summary of the table) |
| --- | --- | --- | --- | --- | --- | --- |
| 26.6 | 71.1 | > 10000 | 59.4 |  | CC(=O)c1c(C)c2cnc(Nc3ccc(N4CCN(CCC5CCN(c6ccc7c(c6)CN(C6CCC(=O)NC6=O)C7=O)CC5)CC4)cn3)nc2n(C2CCCC2)c1=O (centres unmarked) [Compound 13, 3-(5-(4-(2-(4-(6-((6-acetyl-8-cyclopentyl-5-methyl-7-oxo-7,8-dihydropyrido[2,3-d]pyrimidin-2-yl)amino)pyridin-3-yl)piperazin-1-yl)ethyl)piperidin-1-yl)-1-oxoisoindolin-2-yl)piperidine-2,6-dione] |  |
| 29.6 | 67.1 | > 10000 |  |  | COc1cc(N2CCN(CCN3CCN(c4ccc(Nc5ncc6c(C)c(C(C)=O)c(=O)n(C7CCCC7)c6n5)nc4)CC3)CC2)cc2c1C(=O)N(C1CCC(=O)NC1=O)C2 (centres unmarked) [Compound 17, 3-(5-(4-(2-(4-(6-((6-acetyl-8-cyclopentyl-5-methyl-7-oxo-7,8-dihydropyrido[2,3-d]pyrimidin-2-yl)amino)pyridin-3-yl)piperazin-1-yl)ethyl)piperazin-1-yl)-7-methoxy-1-oxoisoindolin-2-yl)piperidine-2,6-dione dihydrochloride] |  |
| 37.1 | 53.2 | 3950 |  |  | CC(=O)c1c(C)c2cnc(Nc3ccc(N4CCN(CCN5CCN(c6ccc7c(c6Cl)CN(C6CCC(=O)NC6=O)C7=O)CC5)CC4)cn3)nc2n(C2CCCC2)c1=O (centres unmarked) [Compound 21, 3-(5-(4-(2-(4-(6-((6-acetyl-8-cyclopentyl-5-methyl-7-oxo-7,8-dihydropyrido[2,3-d]pyrimidin-2-yl)amino)pyridin-3-yl)piperazin-1-yl)ethyl)piperazin-1-yl)-4-chloro-1-oxoisoindolin-2-yl)piperidine-2,6-dione dihydrochloride] |  |
| 22.1 | 48.8 | 4580 |  | 13.5 | CC(=O)c1c(C)c2cnc(Nc3ccc(N4CCN(CCN5CCN(c6c(F)cc7c(c6F)CN(C6CCC(=O)NC6=O)C7=O)CC5)CC4)cn3)nc2n(C2CCCC2)c1=O.Cl.Cl (centres unmarked) [Compound 23, 3-(5-(4-(2-(4-(6-((6-acetyl-8-cyclopentyl-5-methyl-7-oxo-7,8-dihydropyrido[2,3-d]pyrimidin-2-yl)amino)pyridin-3-yl)piperazin-1-yl)ethyl)piperazin-1-yl)-4,6-difluoro-1-oxoisoindolin-2-yl) piperidine-2,6-dione dihydrochloride] | relatively good inhibitory effects |
| 55.2 | 38.4 | 4000 |  |  | CN(C)C(=O)c1cc2cnc(Nc3ccc(N4CCN(CCN5CCC(CN6CCN(c7ccc8c(c7)CN(C7CCC(=O)NC7=O)C8=O)CC6)CC5)CC4)cn3)nc2n1C1CCCC1 (centres unmarked) [Compound 26, 7-cyclopentyl-2-((5-(4-(2-(4-((4-(2-(2,6-dioxopiperidin-3-yl)-1-oxoisoindolin-5-yl)piperazin-1-yl)methyl)piperidin-1-yl)ethyl)piperazin-1-yl)pyridin-2-yl)amino)-N,N-dimethyl-7H-pyrrolo[2,3-d]pyrimidin-6-amide trihydrochloride] |  |
| 4.44 | 12.7 | 1480 | 95.9 |  | CC(=O)c1c(C)c2cnc(Nc3ccc(N4CCN(CCN5CCC(CN6CCN(c7ccc8c(c7Cl)CN(C7CCC(=O)NC7=O)C8=O)CC6)CC5)CC4)cn3)nc2n(C2CCCC2)c1=O (centres unmarked) [Compound 36, 3-(5-(4-((1-(2-(4-(6-((6-acetyl-8-cyclopentyl-5-methyl-7-oxo-7,8-dihydropyrido[2,3-d]pyrimidin-2-yl)amino)pyridin-3-yl)piperazin-1-yl)ethyl)piperidin-4-yl)methyl)piperazin-1-yl)-4-chloro-1-oxoisoindolin-2-yl)piperidine-2,6-dione trihydrochloride] |  |
| 6.73 | 8.88 | 1400 | 76.2 |  | CC(=O)c1c(C)c2cnc(Nc3ccc(N4CCN(CCN5CCC(CC6CCN(c7ccc8c(c7)CN([C@H]7CCC(=O)NC7=O)C8=O)CC6)CC5)CC4)cn3)nc2n(C2CCCC2)c1=O [Compound 38, (S)-3-(5-(4-((1-(2-(4-(6-((6-acetyl-8-cyclopentyl-5-methyl-7-oxo-7,8-dihydropyrido[2,3-d]pyrimidin-2-yl)amino)pyridin-3-yl)piperazin-1-yl)ethyl)piperidin-4-yl)methyl)piperidin-1-yl)-1-oxoisoindolin-2-yl)piperidine-2,6-dione dihydrochloride] |  |
| 11.3 | 56.1 | 5760 | 440 |  | CC(=O)c1c(C)c2cnc(Nc3ccc(N4CCN(CCN5CCC(CC6CCN(c7ccc8c(c7Cl)CN(C7CCC(=O)NC7=O)C8=O)CC6)CC5)CC4)cn3)nc2n(C2CCCC2)c1=O (centres unmarked) [Compound 39, 3-(5-(4-((1-(2-(4-(6-((6-acetyl-8-cyclopentyl-5-methyl-7-oxo-7,8-dihydropyrido[2,3-d]pyrimidin-2-yl)amino)pyridin-3-yl)piperazin-1-yl)ethyl)piperidin-4-yl)methyl)piperidin-1-yl)-4-chloro-1-oxoisoindolin-2-yl)piperidine-2,6-dione dihydrochloride] |  |
| 23.3 | 55 | 6810 | 50.9 |  | CC(=O)c1c(C)c2cnc(Nc3ccc(N4CCN(CCN5CCC(CC6CCN(c7ccc8c(c7Cl)CN([C@H]7CCC(=O)NC7=O)C8=O)CC6)CC5)CC4)cn3)nc2n(C2CCCC2)c1=O [Compound 40, (S)-3-(5-(4-((1-(2-(4-(6-((6-acetyl-8-cyclopentyl-5-methyl-7-oxo-7,8-dihydropyrido[2,3-d]pyrimidin-2-yl)amino)pyridin-3-yl)piperazin-1-yl)ethyl)piperidin-4-yl)methyl)piperidin-1-yl)-4-chloro-1-oxoisoindolin-2-yl)piperidine-2,6-dione dihydrochloride] |  |
| 19.2 | 33.3 | > 10000 | 194 |  | CC(=O)c1c(C)c2cnc(Nc3ccc(N4CCC(CCN5CCC(CC6CCN(c7ccc8c(c7)CN(C7CCC(=O)NC7=O)C8=O)CC6)CC5)CC4)cn3)nc2n(C2CCCC2)c1=O (centres unmarked) [Compound 42, 3-(5-(4-((1-(2-(1-(6-((6-acetyl-8-cyclopentyl-5-methyl-7-oxo-7,8-dihydropyrido[2,3-d]pyrimidin-2-yl)amino)pyridin-3-yl)piperidin-4-yl)ethyl)piperidin-4-yl)methyl)piperidin-1-yl)-1-oxoisoindolin-2-yl)piperidine-2,6-dione hydrochloride] |  |
